From patent publication US20100227872A1, “PYRAZINE DERIVATIVES” (priority 2007, published 2010)

Columns and labels:
Assay type in all cases: cell-based
[1] = biological target: T1, Human Nav1.5 (Homo sapiens, UniProt Q14524); assay: Nav1.5 Assay (VIPR, as Nav1.8 assay); settings: HEK293 cells expressing Human Nav1.5; average of replicates
T1 construct: expressed in transfected cells; host or cells: HEK293
Protocol: The Nav1.5 assay is performed in HEK293 cells expressing Human Nav1.5 in the same way as the Nav1.8 assay described above.

[2] = system: tetrodotoxin-sensitive voltage-gated sodium channels including NaV1.2, NaV1.3 and NaV1.7; assay: TTX-S Assay in SHSY-5Y cell line (VIPR, veratridine opener); settings: read-out: TTX-S IC50, veratridine 50 μM as opener, average of replicates
[3] = biological target: T2, Human Nav1.8 (Homo sapiens, UniProt Q9Y5Y9); assay: VIPR Assay for Nav1.8 Compounds (FRET membrane potential, deltamethrin opener); settings: HEK293 cells expressing Human Nav1.8; deltamethrin as opener; average of replicates
T2 construct: expressed in transfected cells; host or cells: HEK293 (selected with Geneticine)
T2 sequence (Q9Y5Y9 whole entry): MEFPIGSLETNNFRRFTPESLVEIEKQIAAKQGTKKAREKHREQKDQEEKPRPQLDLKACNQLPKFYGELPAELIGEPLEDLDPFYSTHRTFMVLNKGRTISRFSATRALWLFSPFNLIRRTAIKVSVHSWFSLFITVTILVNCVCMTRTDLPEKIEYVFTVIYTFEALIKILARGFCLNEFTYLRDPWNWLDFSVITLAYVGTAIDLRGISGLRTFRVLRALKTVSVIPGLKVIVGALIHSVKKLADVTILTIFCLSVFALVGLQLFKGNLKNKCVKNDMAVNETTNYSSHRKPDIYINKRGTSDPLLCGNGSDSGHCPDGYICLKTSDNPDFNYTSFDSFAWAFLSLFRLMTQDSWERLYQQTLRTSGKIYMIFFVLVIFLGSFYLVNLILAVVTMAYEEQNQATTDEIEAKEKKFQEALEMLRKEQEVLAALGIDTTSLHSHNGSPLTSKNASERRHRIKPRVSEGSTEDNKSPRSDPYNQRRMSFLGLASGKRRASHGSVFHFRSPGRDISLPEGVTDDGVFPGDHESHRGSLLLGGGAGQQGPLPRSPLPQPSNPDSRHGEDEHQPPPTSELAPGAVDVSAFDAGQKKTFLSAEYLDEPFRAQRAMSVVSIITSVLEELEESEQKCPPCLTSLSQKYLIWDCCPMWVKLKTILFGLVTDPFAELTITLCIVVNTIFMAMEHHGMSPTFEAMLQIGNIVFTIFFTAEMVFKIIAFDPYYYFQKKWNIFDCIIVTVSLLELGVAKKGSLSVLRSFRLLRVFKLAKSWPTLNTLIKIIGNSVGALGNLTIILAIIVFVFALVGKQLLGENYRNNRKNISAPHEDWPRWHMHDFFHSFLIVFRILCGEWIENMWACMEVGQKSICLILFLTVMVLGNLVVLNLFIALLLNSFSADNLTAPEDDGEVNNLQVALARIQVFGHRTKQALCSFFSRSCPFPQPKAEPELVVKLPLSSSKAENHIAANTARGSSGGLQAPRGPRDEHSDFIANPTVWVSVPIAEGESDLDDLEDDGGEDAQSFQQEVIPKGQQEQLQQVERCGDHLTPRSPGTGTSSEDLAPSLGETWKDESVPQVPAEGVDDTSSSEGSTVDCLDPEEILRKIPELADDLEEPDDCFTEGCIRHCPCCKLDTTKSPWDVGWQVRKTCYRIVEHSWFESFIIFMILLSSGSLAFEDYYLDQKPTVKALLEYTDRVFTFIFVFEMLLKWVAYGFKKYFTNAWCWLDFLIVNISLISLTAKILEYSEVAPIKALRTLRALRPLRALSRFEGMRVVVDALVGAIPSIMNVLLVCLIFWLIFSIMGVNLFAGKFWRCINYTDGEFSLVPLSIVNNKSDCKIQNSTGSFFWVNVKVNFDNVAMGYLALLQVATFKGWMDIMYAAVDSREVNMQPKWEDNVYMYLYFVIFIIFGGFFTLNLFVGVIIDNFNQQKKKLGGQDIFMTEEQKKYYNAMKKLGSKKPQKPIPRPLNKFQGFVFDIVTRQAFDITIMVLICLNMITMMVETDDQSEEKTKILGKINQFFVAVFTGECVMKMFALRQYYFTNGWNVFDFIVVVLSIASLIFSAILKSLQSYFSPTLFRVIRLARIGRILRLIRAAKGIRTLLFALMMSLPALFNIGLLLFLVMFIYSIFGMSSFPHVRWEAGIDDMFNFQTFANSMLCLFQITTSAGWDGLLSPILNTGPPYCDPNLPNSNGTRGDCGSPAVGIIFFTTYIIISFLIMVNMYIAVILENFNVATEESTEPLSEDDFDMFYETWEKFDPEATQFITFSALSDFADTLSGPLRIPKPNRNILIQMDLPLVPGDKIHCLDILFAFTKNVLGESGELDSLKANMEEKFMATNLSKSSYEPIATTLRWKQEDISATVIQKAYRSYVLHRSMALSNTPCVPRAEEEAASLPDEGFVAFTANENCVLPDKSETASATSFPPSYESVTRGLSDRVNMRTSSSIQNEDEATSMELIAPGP

T1 sequence (Q14524 whole entry): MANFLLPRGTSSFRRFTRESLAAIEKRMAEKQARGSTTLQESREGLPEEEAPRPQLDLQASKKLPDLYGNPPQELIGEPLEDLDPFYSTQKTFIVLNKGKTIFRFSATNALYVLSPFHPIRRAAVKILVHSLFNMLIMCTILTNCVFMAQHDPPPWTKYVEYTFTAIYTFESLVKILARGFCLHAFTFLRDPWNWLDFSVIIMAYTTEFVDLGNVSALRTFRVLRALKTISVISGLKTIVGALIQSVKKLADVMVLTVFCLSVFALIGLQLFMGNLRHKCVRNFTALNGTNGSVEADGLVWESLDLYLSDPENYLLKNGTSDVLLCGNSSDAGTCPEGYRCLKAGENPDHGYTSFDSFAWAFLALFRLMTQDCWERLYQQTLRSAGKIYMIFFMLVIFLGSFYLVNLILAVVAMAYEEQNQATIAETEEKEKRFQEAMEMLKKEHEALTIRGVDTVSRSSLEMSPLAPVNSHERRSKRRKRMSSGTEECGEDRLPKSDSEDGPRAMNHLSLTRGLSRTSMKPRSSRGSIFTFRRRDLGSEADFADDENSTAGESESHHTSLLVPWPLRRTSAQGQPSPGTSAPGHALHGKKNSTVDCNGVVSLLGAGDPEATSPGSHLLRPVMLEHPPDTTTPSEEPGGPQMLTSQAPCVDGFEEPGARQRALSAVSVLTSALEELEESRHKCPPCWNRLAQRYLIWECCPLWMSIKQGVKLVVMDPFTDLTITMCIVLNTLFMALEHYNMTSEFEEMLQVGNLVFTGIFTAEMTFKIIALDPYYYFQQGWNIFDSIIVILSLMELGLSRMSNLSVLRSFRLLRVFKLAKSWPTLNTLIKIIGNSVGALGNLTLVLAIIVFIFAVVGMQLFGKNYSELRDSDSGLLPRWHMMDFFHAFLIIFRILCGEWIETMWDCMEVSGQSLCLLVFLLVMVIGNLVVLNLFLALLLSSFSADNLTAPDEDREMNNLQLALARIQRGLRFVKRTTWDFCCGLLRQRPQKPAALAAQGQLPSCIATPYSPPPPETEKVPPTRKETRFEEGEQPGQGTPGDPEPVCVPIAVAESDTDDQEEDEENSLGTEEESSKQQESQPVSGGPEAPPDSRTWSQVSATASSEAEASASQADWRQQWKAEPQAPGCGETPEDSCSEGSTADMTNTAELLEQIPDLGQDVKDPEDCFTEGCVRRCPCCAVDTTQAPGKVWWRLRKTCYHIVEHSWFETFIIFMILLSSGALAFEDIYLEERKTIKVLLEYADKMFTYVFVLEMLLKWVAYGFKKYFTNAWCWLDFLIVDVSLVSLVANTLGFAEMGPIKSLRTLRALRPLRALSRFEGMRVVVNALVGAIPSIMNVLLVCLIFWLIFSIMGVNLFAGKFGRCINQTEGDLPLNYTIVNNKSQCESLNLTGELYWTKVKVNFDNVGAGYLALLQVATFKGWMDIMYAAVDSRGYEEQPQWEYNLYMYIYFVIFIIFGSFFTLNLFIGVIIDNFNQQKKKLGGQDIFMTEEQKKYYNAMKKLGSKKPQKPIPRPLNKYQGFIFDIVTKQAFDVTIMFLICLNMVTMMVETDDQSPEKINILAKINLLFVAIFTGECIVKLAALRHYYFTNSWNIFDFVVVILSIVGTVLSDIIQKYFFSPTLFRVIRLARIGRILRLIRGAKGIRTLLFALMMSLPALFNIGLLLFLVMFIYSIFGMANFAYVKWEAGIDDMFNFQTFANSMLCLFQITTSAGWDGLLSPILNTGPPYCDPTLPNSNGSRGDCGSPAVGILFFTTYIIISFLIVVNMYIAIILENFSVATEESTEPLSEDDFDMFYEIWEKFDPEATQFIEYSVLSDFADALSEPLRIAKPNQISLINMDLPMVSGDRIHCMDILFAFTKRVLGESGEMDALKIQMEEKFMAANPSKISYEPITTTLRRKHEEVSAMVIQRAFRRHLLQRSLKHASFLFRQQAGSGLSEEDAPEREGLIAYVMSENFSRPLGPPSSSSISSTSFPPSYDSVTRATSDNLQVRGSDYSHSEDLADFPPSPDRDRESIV

Row | SMILES | IC50 [1] | IC50 [2] | IC50 [3]
1 | Cc1nocc1C(=O)Nc1cnc(-c2ccccc2OC(F)(F)F)c(N)n1 [Example 1, N-{6-Amino-5-[2-(trifluoromethoxy)phenyl]pyrazin-2-yl}-3-methylisoxazole-4-carboxamide] | > 32 µM | 30 µM | 3.6 µM
2 | Cc1nocc1C(=O)Nc1cnc(-c2ccccc2C(F)(F)F)c(N)n1 [Example 2, N-{6-Amino-5-[2-(trifluoromethyl)phenyl]pyrazin-2-yl}-3-methylisoxazole-4-carboxamide] |  | > 32 µM | 8.7 µM
3 | Cc1nocc1C(=O)Nc1cnc(-c2cc(Cl)ccc2OC(F)(F)F)c(N)n1 [Example 3, N-{6-Amino-5-[5-chloro-2-(trifluoromethoxy)phenyl]pyrazin-2-yl}-3-methylisoxazole-4-carboxamide] | > 32 µM | 16 µM | 4.3 µM
4 | CCn1nccc1C(=O)Nc1cnc(-c2ccccc2OC(F)(F)F)c(N)n1 [Example 4, N-{6-Amino-5-[2-(trifluoromethoxy)phenyl]pyrazin-2-yl}-1-ethyl-1H-pyrazole-5-carboxamide] | > 32 µM | > 32 µM | 27 µM
5 | CC(C)n1nccc1C(=O)Nc1cnc(-c2ccccc2OC(F)(F)F)c(N)n1 [Example 5, N-{6-Amino-5-[2-(trifluoromethoxy)phenyl]pyrazin-2-v1}-1-isopropyl-1H-pyrazole-5-carboxamide] | > 32 µM | 29 µM | 19 µM
6 | COCc1nocc1C(=O)Nc1cnc(-c2ccccc2OC(F)(F)F)c(N)n1 [Example 6, N-{6-Amino-5-[2-(trifluoromethoxy)phenyl]pyrazin-2-yl}-3-(methoxymethyl)isoxazole-4-carboxamide] | > 32 µM | 19 µM | 20 µM
7 | COCc1nocc1C(=O)Nc1cnc(-c2cc(Cl)ccc2OC(F)(F)F)c(N)n1 [Example 7] | 21 µM | 17 µM | 4.6 µM
8 | COCc1nocc1C(=O)Nc1cnc(-c2cc(F)ccc2C(F)(F)F)c(N)n1 [Example 8, N-{6-Amino-5-[5-fluoro-2-(trifluoromethyl)phenyl]pyrazin-2-yl}-3-(methoxymethyl)isoxazole-4-carboxamide] | > 32 µM |  | 11 µM
9 | COCc1oncc1C(=O)Nc1cnc(-c2ccccc2OC(F)(F)F)c(N)n1 [Example 9, N-{6-Amino-5-[2-(trifluoromethoxy)phenyl]pyrazin-2-yl}-5-(methoxymethyl)isoxazole-4-carboxamide] | > 32 µM | 30 µM | 20 µM
10 | Cc1nocc1C(=O)Nc1cnc(-c2cc(F)ccc2C(F)(F)F)c(N)n1 [Example 10, N-{6-amino-5-[5-fluoro-2-(trifluoromethyl)phenyl]pyrazin-2-yl}-3-methylisoxazole-4-carboxamide] | > 32 µM | > 32 µM | 4.7 µM
11 | Cn1nccc1C(=O)Nc1cnc(-c2cc(Cl)ccc2OC(F)(F)F)c(N)n1 [Example 11, N-{6-Amino-5-[5-chloro-2-(trifluoromethoxy)phenyl]pyrazin-2-yl}-methyl-1H-pyrazole-5-carboxamide] | > 32 µM | > 32 µM | 12 µM
12 | Nc1nc(NC(=O)c2conc2C(F)(F)F)cnc1-c1ccccc1OC(F)(F)F [Example 12, N-{6-Amino-5-[2-(trifluoromethoxy)phenyl]pyrazin-2-yl}-3-(trifluoromethyl)isoxazole-4-carboxamide] | > 32 µM | 21 µM | 2.8 µM
13 | Cc1nocc1C(=O)Nc1cnc(-c2cc(F)ccc2OC(F)(F)F)c(N)n1 [Example 13, N-{6-Amino-5-[5-fluoro-2-(trifluoromethoxy)phenyl]pyrazin-2-yl}-3-methylisoxazole-4-carboxamide] | > 32 µM | > 32 µM | 3.8 µM
14 | Nc1nc(NC(=O)c2conc2C(F)(F)F)cnc1-c1cc(F)ccc1C(F)(F)F [Example 14, N-{6-Amino-5-[5-fluoro-2-(trifluoromethyl)phenyl]ovrazin-2-yl}-3-trifluoromethylisoxazole-4-carboxamide] | > 32 µM | 31 µM | 2.5 µM
15 | Cn1nccc1C(=O)Nc1cnc(-c2cc(F)ccc2OC(F)(F)F)c(N)n1 [Example 15] | > 32 µM | > 32 µM | 16 µM
16 | CCOc1ccc(OC(F)(F)F)c(-c2ncc(NC(=O)c3ccnn3C)nc2N)c1 [Example 16, N-{6-Amino-5-[5-ethoxy-2-(trifluoromethoxy)phenyl]pyrazin-2-yl}-1-methyl-1H-pyrazole-5-carboxamide] | > 32 µM |  | 19 µM
17 | CCOc1ccc(OC(F)(F)F)c(-c2ncc(NC(=O)c3conc3C)nc2N)c1 [Example 17, N-(6-Amino-5-[5-ethoxy-2-{trifluoromethoxy)phenyl]pyrazin-2-yl}-3-methylisoxazole-4-carboxamide] | > 32 µM |  | 1.9 µM
